Test results: PMC3735939, “The low levels of eicosapentaenoic acid in rat brain phospholipids are maintained via multiple redundant mechanisms” (Journal of Lipid Research, 2013)
Values joined by “and” are separate entries in the source; they are usually repeats but may differ in a detail not shown here. Equal entries are not always repeated.

Tests used:
[1] = Identification of radiolabeled FAs in brain phospholipids by HPLC and LSC after 14C-EPA infusion; assay type: in vivo, rat; conditions: for percent of total radiolabeled FAs: brain total phospholipids;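 for radiolabeled FA composition: percent of radiolabeled FAs within each phospholipid class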
Experimental: (§1) Twenty-four hours postsurgery, a second catheter (iv catheter 24 gauge/0.75 inch, Angiocath™; Becton Dickinson) was implanted into the tail vein where rats received either vehicle or 10 mg/kg of MEP. Ten minutes post injection of vehicle or MEP, the tail vein catheter was connected to a syringe containing radiolabeled ^14C-palmitate (n = 8), ^14C-DHA (n = 6), or ^14C-EPA (n = 7) attached to a computer-controlled variable speed pump (PHD 22/2000; Harvard Apparatus, Holliston, MA). […] Each rat received a dose of 76 μCi ^14C-palmitate, 76 μCi ^14C-DHA, or 78 μCi ^14C-EPA. […] The radiotracer infusions continued until rats were euthanized. The brain was excised and cut sagittally. Both hemispheres were stored at −80°C for radioactive and biochemical analyses. Plasma was isolated from whole blood via microcentrifugation at 6,200 rpm (2,000 g) for 5 min and stored at −80°C. Total lipids from one brain hemisphere and from plasma were extracted by the method of Folch, Lees, and Sloane Stanley ([39]). Isolation of various neutral lipid and phospholipid classes from the total lipid extract was previously described by Chen, Liu, and Bazinet ([6]). FA methyl esters and radioactive acyl-CoA analysis were previously described by Chen, Liu, and Bazinet ([6]).

[2] = tested on: mitochondrial FA β-oxidation; assay: Radioactivity in brain aqueous fraction (marker of β-oxidation) after 5 min intravenous 14C-tracer infusion; assay type: in vivo, rat; conditions: vehicle injection; 5 min iv infusion of tracer
Experimental: as §1, with “([6]).” for “([6]). FA methyl esters and radioactive acyl-CoA analysis were previously described by Chen, Liu, and Bazinet ([6]).”

[3] = Radioactivity in brain lipid fractions after 5 min intravenous 14C-tracer infusion (TLC, LSC); assay type: in vivo, rat; conditions: for total radioactivity in brain total phospholipids: not adjusted for percent composition of 14C-EPA; for esterification of radiolabeled FA into brain total phospholipids: 14C-EPA-infused rats
Experimental: as §1

[4] = In vivo kinetics of FA incorporation and turnover in brain phospholipids (intravenous radiotracer infusion, kinetic model); design: species or system rat
Experimental: Twenty-four hours postsurgery, a second catheter (iv catheter 24 gauge/0.75 inch, Angiocath™; Becton Dickinson) was implanted into the tail vein where rats received either vehicle or 10 mg/kg of MEP. […] The radiotracers were infused for 5 min via the tail vein catheter at a rate of 0.223(1 + e^−19.2t) ml/min (t is infusion time in minutes) ([37]) which achieves a steady-state plasma radioactivity within 1 min ([18], [38]). […] During the 5 min infusion, blood samples were collected from the jugular vein at approximately 0, 0.25, 0.5, 0.75, 1.5, 3, 4, and 5 min while the unanesthetized rat was mobile in the infusion box with food and water. […] After 5 min, the rats were rapidly euthanized by head-focused high-energy microwave irradiation (13.5 kW for 1.6 s; Cober Electronics Inc., Stratford, CT). The radiotracer infusions continued until rats were euthanized. The brain was excised and cut sagittally. Both hemispheres were stored at −80°C for radioactive and biochemical analyses. Plasma was isolated from whole blood via microcentrifugation at 6,200 rpm (2,000 g) for 5 min and stored at −80°C.
The model for in vivo kinetics of brain FAs in rats has been previously described ([17], [18], [21], [23], [25], [37], [41]).
Because the infusion is 5 min, contributions of FA from de novo synthesis and esterified plasma FA are negligible ([18], [20], [23], [41]); thus only contributions from plasma unesterified FAs and acyl-CoA pools were considered in the calculation of λpalmitate, DHA, or EPA .

[5] = cited from earlier work

With `CC/C=C\C/C=C\C/C=C\C/C=C\C/C=C\CCCC(=O)O` [EPA, eicosapentaenoic acid] the “radiolabeled FA composition” value ([1]; ChoGpl, MEP-treated rats) was 66%, the “radiolabeled FA composition” value ([1]; ChoGpl, vehicle-treated rats) was 65% and the “radiolabeled FA composition” value ([1]; EtnGpl, MEP-treated rats) was 25%. For the same compound, the “radiolabeled FA composition” value ([1]; EtnGpl, vehicle-treated rats) was 24%, the “radiolabeled FA composition” value ([1]; PtdIns, MEP-treated rats) was 65% and the “radiolabeled FA composition” value ([1]; PtdIns, vehicle-treated rats) was 66%. For the same compound, the “radiolabeled FA composition” value ([1]; PtdSer, MEP-treated rats) was 54%, the “radiolabeled FA composition” value ([1]; PtdSer, vehicle-treated rats) was 44% and the “percent of total radiolabeled FAs” value ([1]; MEP-treated rats) was 56%. For the same compound, the “percent of total radiolabeled FAs” value ([1]; vehicle-treated rats) was 62%, the “radioactivity of brain aqueous fraction” value [2] was 21 nCi/g brain and the “total radioactivity in brain total phospholipids” value ([3]; MEP) was 22 ± 0.6 nCi/g brain. The “total radioactivity in brain total phospholipids” value ([3]; vehicle) was 17 ± 0.9 nCi/g brain, the “FFA rate of turnover” value ([4]; ChoGpl, MEP) was 28 ± 4.5 %/day and the “JFA net incorporation rate from brain acyl-CoA” value (“JFA net incorporation rate” below) ([4]; ChoGpl, MEP) was 16 ± 2.3 nmol/g/day. For the same compound, the “Jin net incorporation rate from plasma unesterified FA” value (“Jin net incorporation rate” for short) ([4]; ChoGpl, MEP) was 3.7 ± 0.31^! nmol/g/day, the “FFA rate of turnover” value ([4]; ChoGpl, Vehicle) was 46 ± 6.9 %/day and the “JFA net incorporation rate” value ([4]; ChoGpl, Vehicle) was 23 ± 3.3 nmol/g/day. For the same compound, the “Jin net incorporation rate” value ([4]; ChoGpl, Vehicle) was 2.8 ± 0.55 nmol/g/day, the “FFA rate of turnover” value ([4]; EtnGpl, MEP) was 9.5 ± 3.3 %/day and the “JFA net incorporation rate” value ([4]; EtnGpl, MEP) was 5.4 ± 1.4 nmol/g/day. For the same compound, the “Jin net incorporation rate” value ([4]; EtnGpl, MEP) was 1.2 ± 0.17 nmol/g/day, the “FFA rate of turnover” value ([4]; EtnGpl, Vehicle) was 8.4 ± 0.81 %/day and the “JFA net incorporation rate” value ([4]; EtnGpl, Vehicle) was 6.4 ± 1.3 nmol/g/day. The “Jin net incorporation rate” value ([4]; EtnGpl, Vehicle) was 0.78 ± 0.19 nmol/g/day, the λ dilution factor ([4]; MEP) was 0.24 ± 0.022 and the “FFA rate of turnover” value ([4]; PtdIns, MEP) was 17 ± 6.6 %/day. The “JFA net incorporation rate” value ([4]; PtdIns, MEP) was 3.0 ± 1.4 nmol/g/day, the “Jin net incorporation rate” value ([4]; PtdIns, MEP) was 0.73 ± 0.41 nmol/g/day and the “FFA rate of turnover” value ([4]; PtdIns, Vehicle) was 24 ± 1.7 %/day. For the same compound, the “JFA net incorporation rate” value ([4]; PtdIns, Vehicle) was 4.5 ± 0.2 nmol/g/day, the “Jin net incorporation rate” value ([4]; PtdIns, Vehicle) was 0.52 ± 0.087 nmol/g/day and the “FFA rate of turnover” value ([4]; PtdSer, MEP) was 3.1 ± 0.43 %/day. The “JFA net incorporation rate” value ([4]; PtdSer, MEP) was 1.2 ± 0.13 nmol/g/day, the “Jin net incorporation rate” value ([4]; PtdSer, MEP) was 0.29 ± 0.057 nmol/g/day and the “FFA rate of turnover” value ([4]; PtdSer, Vehicle) was 3.1 ± 0.56 %/day. For the same compound, the “JFA net incorporation rate” value ([4]; PtdSer, Vehicle) was 1.4 ± 0.36 nmol/g/day, the “Jin net incorporation rate” value ([4]; PtdSer, Vehicle) was 0.17 ± 0.055 nmol/g/day and the “FFA rate of turnover” value ([4]; Total PL, MEP) was 17 ± 2.3 %/day. For the same compound, the “JFA net incorporation rate” value ([4]; Total PL, MEP) was 31 ± 4.8 nmol/g/day, the “Jin net incorporation rate” value ([4]; Total PL, MEP) was 7.3 ± 0.7^! nmol/g/day and the “FFA rate of turnover” value ([4]; Total PL, Vehicle) was 21 %/day and 21 ± 2.9 %/day. The “JFA net incorporation rate” value ([4]; Total PL, Vehicle) was 47 ± 5.7 nmol/g/day, the “Jin net incorporation rate” value ([4]; Total PL, Vehicle) was 5.7 nmol/g/day and 5.7 ± 1.1 nmol/g/day and the “Jin as percent of the Jout” value ([4]; rat, in vivo) was 36%. For the same compound, the “recycling into brain phospholipids, fold lower than DHA” value ([4]; rat, in vivo) was 154 fold, the λ dilution factor ([4]; vehicle) was 0.12 ± 0.014 and 0.12 ± 0.01 and the “Jout net rate of loss from brain phospholipids” value [5] was 16 nmol/g/day. The “loss t1/2 from brain phospholipids” value [5] was 5 days and the “rate of loss from brain phospholipids” value [5] was 14 % per day.

With `CCCCCCCCCCCCCCCC(=O)O` [Palmitate, [1-14C]palmitate] the “radiolabeled FA composition” value ([1]; ChoGpl, MEP-treated rats) was 3%, the “radiolabeled FA composition” value ([1]; ChoGpl, vehicle-treated rats) was 6% and the “percent of total radiolabeled FAs” value ([1]; MEP-treated rats) was 2%. For the same compound, the “percent of total radiolabeled FAs” value ([1]; vehicle-treated rats) was 4%, the “radioactivity of brain aqueous fraction” value [2] was 17 nCi/g brain and the “FFA rate of turnover” value ([4]; ChoGpl, MEP) was 53 ± 13 %/day. The “JFA net incorporation rate” value ([4]; ChoGpl, MEP) was 12,720 ± 3,120 nmol/g/day, the “FFA rate of turnover” value ([4]; ChoGpl, Vehicle) was 84 ± 33 %/day and the “JFA net incorporation rate” value ([4]; ChoGpl, Vehicle) was 20,713 ± 9,692 nmol/g/day. The “FFA rate of turnover” value ([4]; EtnGpl, MEP) was 110 ± 37 %/day, the “JFA net incorporation rate” value ([4]; EtnGpl, MEP) was 3,062 ± 1,011 nmol/g/day and the “FFA rate of turnover” value ([4]; EtnGpl, Vehicle) was 161 ± 66 %/day. For the same compound, the “JFA net incorporation rate” value ([4]; EtnGpl, Vehicle) was 4,926 ± 2,623 nmol/g/day, the Jin into diacylglycerol ([4]; MEP) was 238 ± 34 nmol/g/day and the Jin into triacylglycerol ([4]; MEP) was 276 ± 19 nmol/g/day. The “FFA rate of turnover” value ([4]; PtdIns, MEP) was 311 ± 135 %/day, the “JFA net incorporation rate” value ([4]; PtdIns, MEP) was 2,443 ± 1,153 nmol/g/day and the “FFA rate of turnover” value ([4]; PtdIns, Vehicle) was 292 ± 80 %/day. For the same compound, the “JFA net incorporation rate” value ([4]; PtdIns, Vehicle) was 2,679 ± 1,655 nmol/g/day, the “FFA rate of turnover” value ([4]; PtdSer, MEP) was 261 ± 194 %/day and the “JFA net incorporation rate” value ([4]; PtdSer, MEP) was 849 ± 562 nmol/g/day. For the same compound, the “FFA rate of turnover” value ([4]; PtdSer, Vehicle) was 356 ± 259 %/day, the “JFA net incorporation rate” value ([4]; PtdSer, Vehicle) was 1,253 ± 792 nmol/g/day and the “FFA rate of turnover” value ([4]; Total PL, MEP) was 80 ± 30 %/day. The “JFA net incorporation rate” value ([4]; Total PL, MEP) was 19,285 ± 6,630 nmol/g/day, the “FFA rate of turnover” value ([4]; Total PL, Vehicle) was 127 ± 57 %/day and the “JFA net incorporation rate” value ([4]; Total PL, Vehicle) was 32,728 ± 17,692 nmol/g/day. The Jin into diacylglycerol ([4]; vehicle) was 106 ± 19 nmol/g/day, the Jin into triacylglycerol ([4]; vehicle) was 140 ± 23 nmol/g/day and the “Jout net rate of loss from brain phospholipids” value [5] was 469 nmol/g/day. The “rate of loss from brain phospholipids” value [5] was 2 % per day.

With `CC/C=C\C/C=C\C/C=C\C/C=C\C/C=C\CCCCCC(=O)O` [n-3 DPA, n-3 docosapentaenoic acid] the “radiolabeled FA composition” value ([1]; ChoGpl, MEP-treated rats) was 26%, the “radiolabeled FA composition” value ([1]; ChoGpl, vehicle-treated rats) was 18% and the “radiolabeled FA composition” value ([1]; EtnGpl, MEP-treated rats) was 61%. For the same compound, the “radiolabeled FA composition” value ([1]; EtnGpl, vehicle-treated rats) was 47%, the “percent of total radiolabeled FAs” value ([1]; MEP-treated rats) was 38% and the “percent of total radiolabeled FAs” value ([1]; vehicle-treated rats) was 24%. The “esterification of radiolabeled FA into brain total phospholipids” value ([3]; MEP) was 8.3 ± 0.2 nCi/g brain and the “esterification of radiolabeled FA into brain total phospholipids” value ([3]; vehicle) was 4.1 ± 0.2 nCi/g brain.
